According to patent US20250296971A1, “GASTRIC INHIBITORY PEPTIDE RECEPTOR LIGANDS” (priority 2021, published 2025):
Values belong to the molecule of their own block, whether it stands above or below them. *1 amine or outer side, *2 acyl side, *3 side chain or, on linkers, in order; H or OH if unused. Where a SMILES comes first, the peptide text is derived from it. Bridges are numbered along the chain shown (N, C = ends). [ ]: non-standard residue; d: D form. The star is where a group is joined. DOTA(In) = O=C1CN2CCN3CCN(CC(=O)*)CCN(CC2)CC(=O)[O][In]([O]1)[O]C(=O)C3; NH(1-deoxy-D-glucityl) = OC[C@@H](O)[C@@H](O)[C@H](O)[C@@H](O)CN*; Pro(trans-4-NH2) = O=C([C@@H]1C[C@@H](N[*:3])CN1[*:1])[*:2]; DOTA = O=C(O)CN1CCN(CC(=O)O)CCN(CC(=O)*)CCN(CC(=O)O)CC1; Trp(5-Cl) = N[C@@H](Cc1c[nH]c2ccc(Cl)cc12)C(=O)O; Pyridine(2,6-diCH2) = c1cc(C[*:1])nc(C[*:2])c1; Phe(2,4-Cl2) = N[C@@H](Cc1ccc(Cl)cc1Cl)C(=O)O; Pro(4R-NH2) = N[C@H]1CN[C@H](C(=O)O)C1; Glutaryl = O=C(CCCC(=O)[*:2])[*:1]; X6 = c1cc(CSCCN[*:2])nc(C[*:1])c1; Hyp = O=C(O)[C@@H]1C[C@@H](O)CN1; X1 = O=C(CN1CCC(N[*:1])CC1)[*:2]; NMeE = CN[C@@H](CCC(=O)O)C(=O)O; pS = N[C@@H](COP(=O)(O)O)C(=O)O; Suc = O=C(CCC(=O)[*:2])[*:1]; Api = NC1(C(=O)O)CCNCC1; Thp = NC1(C(=O)O)CCOCC1

How the values were obtained:
[1] = target: T1, GIPR (CHO-K1-hGIPR cells) (Homo sapiens, UniProt P48546); test: FACS binding assay; details: competition with 20 nM GIP-057, 4° C., 1 hour, read-out: pIC50 Category (converted)
T1 construct: host or cells: CHO-K1
T1 sequence (P48546 22-466): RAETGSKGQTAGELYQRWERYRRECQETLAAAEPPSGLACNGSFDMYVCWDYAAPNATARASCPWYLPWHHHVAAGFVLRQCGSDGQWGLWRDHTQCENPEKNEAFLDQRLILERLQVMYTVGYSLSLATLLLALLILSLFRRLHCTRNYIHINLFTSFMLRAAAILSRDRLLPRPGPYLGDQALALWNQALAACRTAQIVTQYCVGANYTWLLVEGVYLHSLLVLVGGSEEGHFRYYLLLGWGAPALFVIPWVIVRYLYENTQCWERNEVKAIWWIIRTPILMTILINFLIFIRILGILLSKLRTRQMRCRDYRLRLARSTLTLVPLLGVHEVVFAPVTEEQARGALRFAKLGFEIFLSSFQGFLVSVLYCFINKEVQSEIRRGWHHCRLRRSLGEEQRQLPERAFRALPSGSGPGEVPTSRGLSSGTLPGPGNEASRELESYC
How it was run: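 Read-out: flow cytometric median fluorescence intensity, APC/Cy5 channel, plotted vs peptide conc.; 4PL fit → EC50/pEC50 or IC50/pIC50. Cells: CHO-K1-hGIPR, Accutase-detached, 500.000/mL in PBS + 1% FCS. Detection: APC-streptavidin 1 μg/mL, 30 min, on ice.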

[2] = target: T2, human GIP receptor (bioGIPR) (Homo sapiens, UniProt P48546); test: Surface plasmon resonance (SPR) based binding assay; details: Single Cycle Kinetic mode, 25° C.; for Kd: SPR, 1:1 Langmuir binding model, read-out: pKD Category (converted); for t1/2 Category: SPR dissociation half-life
T2 construct: Biotinylate extracellular of the human GIP receptor (bioGIPR, Proteros biostructures GmbH, lot #02/2b); purchased Proteros biostructures GmbH lot #02/2b
T2 sequence (P48546 22-138 limits assumed): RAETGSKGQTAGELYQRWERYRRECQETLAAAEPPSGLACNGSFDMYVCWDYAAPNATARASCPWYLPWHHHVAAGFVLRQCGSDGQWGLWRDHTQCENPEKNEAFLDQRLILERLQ
How it was run: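 Binding was measured at 25 °C by single-cycle kinetics against a reference flow cell, with blank-run and drift correction, after capturing biotinylated GIPR extracellular domain to ~3500 RU. Running buffer: HBST, 0.1% DMSO. A 1:1 Langmuir model gave kinetic rates, KD, t1/2 and pKD.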

[3] = target: human Gastric Inhibitory Peptide Receptor (GIPR) (human) (UniProt P48546); test: FACS competition vs biotinylated GIP-057 on CHO-K1-hGIPR cells; category A: pIC50 >8.0

- IC50 [1]: < 10 nM
- t1/2 Category [2]: A (t1/2 values>15 min)
- Kd [2]: < 1 nM
Molecule: CC[C@H](C)[C@@H]1NC(=O)[C@H](CC(C)C)NC(=O)C2(CCOCC2)NC(=O)[C@@H](NC(=O)[C@@H](CC(C)C)NC(=O)[C@H](CCC(=O)O)NC(=O)[C@@H]2C[C@@H](NC(=O)CN3CCN(CC(=O)O)CCN(CC(=O)O)CCN(CC(=O)O)CC3)CN2C(=O)[C@H](Cc2c[nH]c3ccc(Cl)cc23)NC(=O)[C@H](Cc2c[nH]c3ccccc23)NC(=O)[C@H](CC(=O)O)NC(C)=O)CSCc2cccc(n2)CSC[C@@H](C(N)=O)NC1=O [GIP-121, Ac-Asp-Trp-5Clw-Tap(DOTA)-Glu-leu-[Cys(2Lut)-Thp-Leu-Ile-Cys]-NH2] (Ac-DW[Trp(5-Cl)][Pro(trans-4-NH2)](DOTA)E[dL]C[Thp]LIC-NH2; linker 7-11 via Pyridine(2,6-diCH2))

- IC50 [1]: < 10 nM
- t1/2 Category [2]: A (t1/2 values>15 min)
- Kd [2]: < 1 nM
Molecule: CC[C@H](C)[C@@H]1NC(=O)[C@H](CC(C)C)NC(=O)C2(CCOCC2)NC(=O)[C@@H](NC(=O)[C@@H](CC(C)C)NC(=O)[C@H](CCC(=O)O)NC(=O)[C@@H]2C[C@@H](O)CN2C(=O)[C@H](Cc2c[nH]c3ccc(Cl)cc23)NC(=O)[C@H](Cc2c[nH]c3ccccc23)NC(=O)CCC(=O)O)CSCc2cccc(n2)CSC[C@@H](C(=O)NC2CCN(CC(=O)N[C@H](CCC(=O)NC[C@H](O)[C@@H](O)[C@H](O)[C@H](O)CO)C(=O)N[C@@H](CCCCNC(=O)CN3CCN(CC(=O)O)CCN(CC(=O)O)CCN(CC(=O)O)CC3)C(N)=O)CC2)NC1=O [GIP-021, HO-Succinyl-Trp-5Clw-Hyp-Glu-leu-[Cys(2Lut)-Thp-Leu-Ile-Cys]-APAc-glu(AGLU)-Lys(DOTA)-NH2] (Suc-W[Trp(5-Cl)][Hyp]E[dL]C[Thp]LIC[X1][dE](NH(1-deoxy-D-glucityl))K(DOTA)-NH2; linker 6-10 via Pyridine(2,6-diCH2))

- IC50 [1]: < 10 nM
- t1/2 Category [2]: A (t1/2 values>15 min)
- Kd [2]: < 1 nM
Molecule: CC[C@H](C)[C@@H]1NC(=O)[C@H](CC(C)C)NC(=O)C2(CCNCC2)NC(=O)[C@@H](NC(=O)[C@@H](CC(C)C)NC(=O)[C@H](CCC(=O)O)NC(=O)[C@@H]2C[C@@H](N)CN2C(=O)[C@H](Cc2c[nH]c3ccc(Cl)cc23)NC(=O)[C@H](Cc2c[nH]c3ccccc23)NC(=O)CCC(=O)O)CSCc2cccc(n2)CSC[C@@H](C(=O)NC2CCN(CC(=O)N[C@H](CCC(=O)NC[C@H](O)[C@@H](O)[C@H](O)[C@H](O)CO)C(=O)N[C@@H](CCCCNC(=O)CN3CCN(CC(=O)O)CCN(CC(=O)O)CCN(CC(=O)O)CC3)C(N)=O)CC2)NC1=O [GIP-022, HO-Succinyl-Trp-5Clw-Tap-Glu-leu-[Cys(2Lut)-Apc-Leu-Ile-Cys]-APAc-glu(AGLU)-Lys(DOTA)-NH2] (Suc-W[Trp(5-Cl)][Pro(4R-NH2)]E[dL]C[Api]LIC[X1][dE](NH(1-deoxy-D-glucityl))K(DOTA)-NH2; linker 6-10 via Pyridine(2,6-diCH2))

Second part, the molecule before the results:

Molecule: CC[C@H](C)[C@@H]1NC(=O)[C@H](CC(C)C)NC(=O)C2(CCN(C(=O)CN3CCN4CCN5CCN(CC3)CC(=O)[O][In]([O]C(=O)C5)[O]C(=O)C4)CC2)NC(=O)[C@@H](NC(=O)[C@@H](CC(C)C)NC(=O)[C@H](CCC(=O)O)NC(=O)[C@@H]2C[C@@H](O)CN2C(=O)[C@H](Cc2c[nH]c3ccc(Cl)cc23)NC(=O)[C@H](Cc2c[nH]c3ccccc23)NC(=O)[C@H](CC(=O)O)NC(=O)CCCC(=O)NC[C@H](O)[C@@H](O)[C@H](O)[C@H](O)CO)CSCc2cccc(n2)CSCCNC1=O [GIP-146, AGLU-Glutar-Asp-Trp-5Clw-Hyp-Glu-leu-[Cys(2Lut)-Apc(InDOTA)-Leu-Ile-AET]] ({NH(1-deoxy-D-glucityl)-Glutaryl}-DW[Trp(5-Cl)][Hyp]E[dL]C[Api](DOTA(In))LI; linker 7-C via X6)
- IC50 [1]: < 10 nM
- Kd [2]: < 1 nM

B1: Ac-Asp-Hyw-5Clw-Hyp-Glu-leu-[Cys(2Lut)-Thp-Leu-Ile-Cys]-NH2 (peptide)
peptide: Ac-DX[Trp(5-Cl)][Hyp]E[dL]C[Thp]LIC-NH2
modifications: linker 7-11 via Pyridine(2,6-diCH2); not fully specified (residue 2); printed as Ac-Asp-Hyw-5Clw-Hyp-Glu-leu-[Cys(2Lut)-Thp-Leu-Ile-Cys]-NH2
- pIC50 [3]: > 8 pic50

B2: Ac-Asp-Egm-5Clw-Hyp-Glu-leu-[Cys(2Lut)-Thp-Leu-Ile-Cys]-NH2 (peptide)
peptide: Ac-D[Phe(2,4-Cl2)][Trp(5-Cl)][Hyp]E[dL]C[Thp]LIC-NH2
modifications: linker 7-11 via Pyridine(2,6-diCH2)
SMILES: CC[C@H](C)[C@@H]1NC(=O)[C@H](CC(C)C)NC(=O)C2(CCOCC2)NC(=O)[C@@H](NC(=O)[C@@H](CC(C)C)NC(=O)[C@H](CCC(=O)O)NC(=O)[C@@H]2C[C@@H](O)CN2C(=O)[C@H](Cc2c[nH]c3ccc(Cl)cc23)NC(=O)[C@H](Cc2ccc(Cl)cc2Cl)NC(=O)[C@H](CC(=O)O)NC(C)=O)CSCc2cccc(n2)CSC[C@@H](C(N)=O)NC1=O
- pIC50 [3]: > 8 pic50

Molecule: Ac-DW[Trp(5-Cl)][Hyp][pS][dL]C[Thp]LIC-NH2 (linker 7-11 via Pyridine(2,6-diCH2)) [Ac-Asp-Trp-5Clw-Hyp-Pse-leu-[Cys(2Lut)-Thp-Leu-Ile-Cys]-NH2]
- pIC50 [3]: > 8 pic50

Molecule: Ac-DF[Trp(5-Cl)][Hyp]E[dL]C[Thp]LIC-NH2 (linker 7-11 via Pyridine(2,6-diCH2)) [Ac-Asp-Phe-5Clw-Hyp-Glu-leu-[Cys(2Lut)-Thp-Leu-Ile-Cys]-NH2]
- pIC50 [3]: > 8 pic50

Molecule: Ac-DW[Trp(5-Cl)][Hyp][NMeE]LC[Thp]LIC-NH2 (linker 7-11 via Pyridine(2,6-diCH2)) [Ac-Asp-Trp-5Clw-Hyp-Nme-Leu-[Cys(2Lut)-Thp-Leu-Ile-Cys]-NH2]
- pIC50 [3]: > 8 pic50
